Tested on: Collagen I
Experiment: Collagen I release from human dermal fibroblast cells, COL1A1 ELISA of supernatants
Assay type: cell-based
Settings: 1 mL composition, 24 hours, 37° C., 5% CO2, average of 3 tests
Protocol: Each of the compositions of Table 3 was tested on human dermal fibroblast cells (Thermo Fisher Scientific, Gaithersburg, Md.) as follows: human dermal fibroblast cells were seeded in 6-well plates and grow until about 80% confluency. 1 mL of each composition was added to the wells in triplicate per composition. The cells were then incubated at 37° C., 5% CO2 for 24 hours and the supernatants were collected and analyzed for Collagen I release. Collagen I release in the supernatants was measured using COL1A1 ELISA kit (MyBioSource, San Diego, Calif.). The data in Table 3 represents the average value for 3 tests.

NCCS(=O)(=O)O [Solvent + 0.001% Taurine, Taurine]
Collagen I: 1.9 ng/mL
